From ChEMBL document CHEMBL1130798, “Structure based design: novel spirocyclic ethers as nonpeptidal P2-ligands for HIV protease inhibitors” (Bioorg Med Chem Lett, 1998)

Experiments:
[1] = molecular target: Human immunodeficiency virus type 1 protease (Human immunodeficiency virus 1, UniProt Q72874); test: Compound was evaluated for binding affinity against HIV protease
[2] = test system: MT4; test: Compound was evaluated for the inhibition spread of HIV-1 in MT-4 human T-lymphoid cells infected with IIIB isolate; assay type: functional; details: read-out: ID50 (the source's name)

Compound: CCC[C@]1(O)CCO[C@H](C(=O)N[C@@H](Cc2ccccc2)[C@H](O)CN(CC(C)C)S(=O)(=O)c2ccc(OC)cc2)C1
- Ki [1]: > 1 µM

Compound: COc1ccc(S(=O)(=O)N(CC(C)C)C[C@@H](O)[C@H](Cc2ccccc2)NC(=O)[C@@H]2C[C@]3(CCCO3)CCO2)cc1
- Ki [1]: 0.15 µM
- IC50 [2]: 4.5 µM

Compound: COc1ccc(S(=O)(=O)N(CC(C)C)C[C@@H](O)[C@H](Cc2ccccc2)NC(=O)[C@@H]2C[C@@]3(CCCO3)CCO2)cc1
- Ki [1]: 0.02 µM
- IC50 [2]: 2.4 µM

Compound: COc1ccc(S(=O)(=O)N(CC(C)C)C[C@@H](O)[C@H](Cc2ccccc2)NC(=O)[C@H]2C[C@]3(CCCO3)CCO2)cc1
- Ki [1]: > 2 µM

Compound: COc1ccc(S(=O)(=O)N(CC(C)C)C[C@@H](O)[C@H](Cc2ccccc2)NC(=O)[C@H]2C[C@@]3(CCCO3)CCO2)cc1
- Ki [1]: 0.4 µM
- IC50 [2]: 9.1 µM

Compound: CCC[C@]1(O)CCO[C@@H](C(=O)N[C@@H](Cc2ccccc2)[C@H](O)CN(CC(C)C)S(=O)(=O)c2ccc(OC)cc2)C1
- Ki [1]: 0.15 µM
- IC50 [2]: 3.4 µM

Compound: COc1ccc(S(=O)(=O)N(CC(C)C)C[C@@H](O)[C@H](Cc2ccccc2)NC(=O)C2CC3(CCCC3)CCO2)cc1 (stereo not given in full)
- Ki [1]: 1.5 µM

Compound: CCC[C@@]1(O)CCO[C@H](C(=O)N[C@@H](Cc2ccccc2)[C@H](O)CN(CC(C)C)S(=O)(=O)c2ccc(OC)cc2)C1
- Ki [1]: 0.48 µM
- IC50 [2]: > 10 µM

Compound: CCC[C@@]1(O)CCO[C@@H](C(=O)N[C@@H](Cc2ccccc2)[C@H](O)CN(CC(C)C)S(=O)(=O)c2ccc(OC)cc2)C1
- Ki [1]: > 1 µM

Compound: CC(C)(C)NC(=O)C1CC2CCCCC2CN1C[C@@H](O)[C@H](Cc1ccccc1)NC(=O)[C@H](CC(N)=O)NC(=O)c1ccc2ccccc2n1 (single isomer, unassigned)
- IC50 [2]: 18 µM
